{
  "source": "ChEMBL document CHEMBL6087421",
  "about": "“Development of selective sigma-1 receptor ligands with antiallodynic activity: A focus on piperidine and piperazine scaffolds” (Eur J Med Chem, 2025)",
  "key": {"[1]": {"molecular_target": "T1, Sigma non-opioid intracellular receptor 1 (Homo sapiens, UniProt Q99720)", "T1 sequence (Q99720 whole entry)": "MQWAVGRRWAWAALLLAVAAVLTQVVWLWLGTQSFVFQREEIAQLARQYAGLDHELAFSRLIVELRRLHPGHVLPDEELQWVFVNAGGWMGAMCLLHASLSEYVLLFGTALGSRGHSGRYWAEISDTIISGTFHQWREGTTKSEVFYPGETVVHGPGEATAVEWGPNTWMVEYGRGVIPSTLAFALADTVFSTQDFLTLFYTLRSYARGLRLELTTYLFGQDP", "assay": "Displacement of [3H]-(+)-PTZ from S1R (unknown origin) assessed as inhibition constant by radioligand binding assay"}, "HMC3": {"system": "HMC3", "assay": "Cytotoxicity against human HMC3 cells assessed as reduction in cell viability at 0.1 to 30 uM incubated for 48 hrs by acridine orange staining based microplate reader analysis", "format": "toxicity", "settings": "hmc3, 48 h, dose 0.1-30 µM"}, "Mus musculus [2]": {"system": "Mus musculus", "assay": "Antiallodynic activity in capsaicin-induced wild-type female CD-1 mouse administered subcutaneously and measured after 45 min", "format": "functional, organism-based", "settings": "route sc"}, "Mus musculus [3]": {"system": "Mus musculus", "assay": "Antiallodynic activity in capsaicin-induced wild-type female CD-1 mouse at 10 mg/kg, sc measured after 45 mins relative to control", "format": "functional", "settings": "0.75 h"}, "Mus musculus [4]": {"system": "Mus musculus", "assay": "Antiallodynic activity in capsaicin-induced wild-type female CD-1 mouse assessed as maximum antiallodynic effect at 10 mg/kg, sc co-administered with PRE-084 measured after 45 mins", "format": "functional, organism-based"}, "Mus musculus [5]": {"system": "Mus musculus", "assay": "Antiallodynic activity in capsaicin-induced wild-type female CD-1 mouse at 2 to 10 mg/kg, sc measured after 45 mins", "format": "functional, organism-based", "settings": "dose 2-10 mg/kg"}, "Mus musculus [6]": {"system": "Mus musculus", "assay": "Antihyperalgesic activity in PGE2-induced wild type female CD-1 mouse assessed as increase in response latency at 10 mg/kg, sc and measured by paw pressure test", "format": "functional, organism-based"}, "Mus musculus [7]": {"system": "Mus musculus", "assay": "Antihyperalgesic activity in PGE2-induced S1R knockout mouse at 10 mg/kg administered subcutaneously", "format": "functional, organism-based", "settings": "route sc"}, "[8]": {"assay": "Stability of compound in phosphate buffer at pH 7.4 assessed as half life", "format": "physicochemical"}, "[9]": {"assay": "Aqueous solubility of compound by UHPLC-PDA analysis", "format": "physicochemical", "settings": "buffer"}, "[10]": {"assay": "Lipophilicity, log D of the compound in Octanol/PBS buffer at pH 7.4 at 5 to 150 uM by UV-Vis spectrophotometric analysis", "format": "physicochemical", "settings": "dose 5-150 µM"}, "[11]": {"assay": "Octanol/water partition coefficient, log P of the compound", "format": "physicochemical"}, "[12]": {"molecular_target": "Voltage-gated inwardly rectifying potassium channel KCNH2 (Homo sapiens, UniProt Q12809)", "sequence (Q12809 whole entry)": "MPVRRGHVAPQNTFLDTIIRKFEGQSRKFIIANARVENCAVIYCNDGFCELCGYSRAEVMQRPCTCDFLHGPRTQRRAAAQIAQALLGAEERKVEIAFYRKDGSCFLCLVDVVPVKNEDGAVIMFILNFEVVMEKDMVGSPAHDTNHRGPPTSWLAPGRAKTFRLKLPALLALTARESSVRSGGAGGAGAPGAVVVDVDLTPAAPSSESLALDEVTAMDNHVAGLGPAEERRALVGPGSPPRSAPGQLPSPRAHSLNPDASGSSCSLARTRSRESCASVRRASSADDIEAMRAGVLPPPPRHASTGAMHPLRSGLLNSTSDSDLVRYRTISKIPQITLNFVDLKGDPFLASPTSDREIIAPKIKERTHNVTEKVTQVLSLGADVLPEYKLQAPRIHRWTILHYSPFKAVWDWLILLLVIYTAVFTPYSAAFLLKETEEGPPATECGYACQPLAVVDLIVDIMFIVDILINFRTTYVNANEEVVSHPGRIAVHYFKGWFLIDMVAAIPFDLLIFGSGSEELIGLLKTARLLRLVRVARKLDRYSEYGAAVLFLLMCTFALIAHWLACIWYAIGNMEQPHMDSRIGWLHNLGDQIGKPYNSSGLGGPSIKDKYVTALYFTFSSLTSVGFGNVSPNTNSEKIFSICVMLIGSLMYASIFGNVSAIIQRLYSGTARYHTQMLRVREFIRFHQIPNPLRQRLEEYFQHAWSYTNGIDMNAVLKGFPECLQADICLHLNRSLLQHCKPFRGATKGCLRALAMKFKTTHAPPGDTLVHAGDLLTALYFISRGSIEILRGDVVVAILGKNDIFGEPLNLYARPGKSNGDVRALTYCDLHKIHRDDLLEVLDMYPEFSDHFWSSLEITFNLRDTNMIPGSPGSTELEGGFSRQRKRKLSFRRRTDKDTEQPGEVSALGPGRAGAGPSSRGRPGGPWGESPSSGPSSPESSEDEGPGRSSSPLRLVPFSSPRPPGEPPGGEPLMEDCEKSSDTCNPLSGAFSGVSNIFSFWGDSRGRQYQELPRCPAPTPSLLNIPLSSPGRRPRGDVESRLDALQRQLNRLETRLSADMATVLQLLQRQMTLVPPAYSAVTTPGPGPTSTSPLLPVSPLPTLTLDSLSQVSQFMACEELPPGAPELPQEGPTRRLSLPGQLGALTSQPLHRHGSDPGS", "assay": "Inhibition of hERG in CHO-K1 cells", "format": "toxicity, cell-based"}, "Mus musculus [13]": {"system": "Mus musculus", "assay": "Antiallodynic activity in capsaicin-induced wild-type female CD-1 mouse at 5 to 10 mg/kg, sc measured after 45 mins", "format": "functional, organism-based", "settings": "dose 5-10 mg/kg"}, "[14]": {"assay": "Cytotoxicity against human WS1 cells assessed as reduction in cell viability incubated for 48 hrs by acridine orange staining based microplate reader analysis", "format": "toxicity", "settings": "ws1, 48 h"}, "[15]": {"molecular_target": "Sigma intracellular receptor 2 (Homo sapiens, UniProt Q5BJF2)", "sequence (Q5BJF2 whole entry)": "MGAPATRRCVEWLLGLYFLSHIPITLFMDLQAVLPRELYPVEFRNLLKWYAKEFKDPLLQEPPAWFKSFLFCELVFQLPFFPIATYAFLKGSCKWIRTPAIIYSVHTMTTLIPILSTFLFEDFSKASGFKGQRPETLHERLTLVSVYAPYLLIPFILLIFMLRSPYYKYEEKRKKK", "assay": "Binding affinity to S2R (unknown origin) assessed as inhibition constant"}, "[16]": {"molecular_target": "T1, Sigma non-opioid intracellular receptor 1", "description": "Binding affinity to S1R (unknown origin) assessed as inhibition constant"}, "[17]": {"assay": "Lipophilicity, log P of the compound", "format": "physicochemical", "settings": "octanol/water"}, "[18]": {"assay": "Lipophilicity, log D of the compound at pH 7.4", "settings": "buffer"}, "Mus musculus [19]": {"system": "Mus musculus", "assay": "Antiallodynic activity in capsaicin-induced wild-type female CD-1 mouse at 5 to 30 mg/kg, sc measured after 45 mins relative to control", "format": "functional", "settings": "dose 5-30 mg/kg, 0.75 h"}, "Mus musculus [20]": {"system": "Mus musculus", "assay": "Antiallodynic activity in capsaicin-induced wild-type female CD-1 mouse assessed as maximum antiallodynic effect at 30 mg/kg, sc co-administered with PRE-084 measured after 45 mins", "format": "functional, organism-based"}, "Mus musculus [21]": {"system": "Mus musculus", "assay": "Antiallodynic activity in capsaicin-induced wild-type female CD-1 mouse assessed as maximum antiallodynic effect administered subcutaneously and co-administered with PRE-084 measured after 45 mins relative to control", "format": "functional", "settings": "route sc, 0.75 h"}, "Mus musculus [22]": {"system": "Mus musculus", "assay": "Antihyperalgesic activity in PGE2-induced wild type female CD-1 mouse assessed as increase in response latency at 60 mg/kg, sc and measured by paw pressure test", "format": "functional, organism-based"}, "Mus musculus [23]": {"system": "Mus musculus", "assay": "Antihyperalgesic activity in PGE2-induced S1R knockout mouse at 60 mg/kg administered subcutaneously", "format": "functional, organism-based", "settings": "route sc"}},
  "note": "Activity calls are given as the source filed them. No cut-off for these calls is given here.",
  "data": [
    {"smiles": "CCOC(=O)C(c1ccccc1)N(C)C1CCN(CCc2ccccc2)CC1", "note": "(racemic)", "values": [
      {"measurement": "Ki", "setting": "[1]", "value": 9.9, "unit": "nM"},
      {"measurement": "Activity", "setting": "HMC3", "value": "Non-toxic"},
      {"measurement": "Activity", "setting": "Mus musculus [2]", "value": "Dose-dependent-effect"},
      {"measurement": "Activity", "setting": "Mus musculus [3]", "value": 100, "unit": "%"},
      {"measurement": "Activity", "setting": "Mus musculus [4]", "value": "Active"},
      {"measurement": "Activity", "setting": "Mus musculus [5]", "value": "Active"},
      {"measurement": "Activity", "setting": "Mus musculus [6]", "value": "Active"},
      {"measurement": "Activity", "setting": "Mus musculus [7]", "value": "inactive"}
    ]},
    {"smiles": "CCOC(=O)C(c1ccccc1)N(C)C1CCN(Cc2ccccc2)CC1", "note": "(racemic)", "values": [
      {"measurement": "half-life", "setting": "[8]", "value": 1.59, "unit": "h"},
      {"measurement": "solubility", "setting": "[9]", "value": 1870, "unit": "µg/mL"},
      {"measurement": "logD at up to 150 µM", "setting": "[10]", "value": 1.72},
      {"measurement": "logP", "setting": "[11]", "value": 1.79},
      {"measurement": "IC50", "setting": "[12]", "value": 1600, "unit": "nM"},
      {"measurement": "Activity", "setting": "HMC3", "value": "Non-toxic"},
      {"measurement": "Activity", "setting": "Mus musculus [2]", "value": "Dose-dependent-effect"},
      {"measurement": "Activity", "setting": "Mus musculus [3]", "value": 100, "unit": "%"},
      {"measurement": "Activity", "setting": "Mus musculus [4]", "value": "Active"},
      {"measurement": "Activity", "setting": "Mus musculus [13]", "value": "Active"},
      {"measurement": "Activity", "setting": "Mus musculus [6]", "value": "Active"},
      {"measurement": "Activity", "setting": "[14]", "value": "Non-toxic"},
      {"measurement": "Activity", "setting": "Mus musculus [7]", "value": "inactive"}
    ]},
    {"smiles": "COc1ccc(CCN2CCN(CCCc3ccccc3)CC2)cc1OC", "note": "[[11C]SA4503]", "values": [
      {"measurement": "Ki", "setting": "[15]", "value": 90, "unit": "nM"}
    ]},
    {"smiles": "COc1cc2c(cc1OC)C(=O)C(CC1CCN(Cc3ccccc3)CC1)C2", "note": "(configuration not stated) [DONEPEZIL]", "values": [
      {"measurement": "Ki", "setting": "[16]", "value": 15, "unit": "nM"}
    ]},
    {"smiles": "CC(C)=CCN1CC[C@@]2(C)c3cc(O)ccc3C[C@@H]1[C@@H]2C", "values": [
      {"measurement": "Activity", "setting": "HMC3", "value": "Non-toxic"}
    ]},
    {"smiles": "O=C(CCCN1CCC(O)(c2ccc(Cl)cc2)CC1)c1ccc(F)cc1", "note": "[HALOPERIDOL]", "values": [
      {"measurement": "logP", "setting": "[17]", "value": 4.03},
      {"measurement": "logD", "setting": "[18]", "value": 3.99}
    ]},
    {"smiles": "Cc1cc(OCCN2CCOCC2)nn1-c1ccc2ccccc2c1.Cl", "values": [
      {"measurement": "Activity", "setting": "Mus musculus [19]", "value": 100, "unit": "%"},
      {"measurement": "Activity", "setting": "Mus musculus [2]", "value": "Dose-dependent-effect"},
      {"measurement": "Activity", "setting": "Mus musculus [20]", "value": "Active"},
      {"measurement": "Activity", "setting": "Mus musculus [21]", "value": 100, "unit": "%"},
      {"measurement": "Activity", "setting": "Mus musculus [22]", "value": "Active"},
      {"measurement": "Activity", "setting": "Mus musculus [23]", "value": "inactive"}
    ]},
    {"smiles": "CN1CCN(CCc2ccc(Cl)c(Cl)c2)CC1", "values": [
      {"measurement": "Ki", "setting": "[1]", "value": 14, "unit": "nM"},
      {"measurement": "Activity", "setting": "HMC3", "value": "Non-toxic"},
      {"measurement": "Ki", "setting": "[15]", "value": 6.5, "unit": "nM"},
      {"measurement": "Ki", "setting": "[16]", "value": 14, "unit": "nM"}
    ]},
    {"smiles": "CCN(CC)C(=O)C(c1ccccc1)N(C)C1CCN(CCc2ccccc2)CC1", "note": "(racemic)", "values": [
      {"measurement": "Ki", "setting": "[1]", "value": 108, "unit": "nM"}
    ]}
  ]
}
